# Measurements taken from patent US4600710A, “β-Adrenergic receptor agonist alkylaminoalkyl pyridinemethanol derivatives” (G. D. Searle & Co., priority 1985, dated 1986).
# Structures can show the parent of a compound that is named as a salt.
# Legend:
# [1] = test system: spontaneously hypertensive rats; experiment: Intravenous dose-response studies in conscious spontaneously hypertensive rats; assay type: in vivo, rat; details: conscious SHR
# Method: Six adult male spontaneously hypertensive rats were anesthetized with ether and instrumented with carotid artery and jugular vein catheters. The rats were allowed to recover from surgery and ether anesthesia for three to five hours. The test compound was administered intravenously in saline at doses of 0.1, 0.2, 0.7, 2, 7, and 20 mg/kg to give cumulative doses of 0.1, 0.3, 1, 3, 10, and 30 mg/kg. At the completion of these injections propranolol, a beta-adrenergic antagonist, was administered intravenously at a dose of 1 mg/kg and the injections of the test compound were repeated. The volume of each injection was 0.1 ml/100 grams of body weight. Mean arterial pressure and heart rate were measured via the carotid artery with a Statham pressure transducer and Gould physiological recorder. Results were analyzed using a paired t-test.
# [2] = test system: spontaneously hypertensive rats; experiment: Oral dosing studies in conscious spontaneously hypertensive rats; assay type: in vivo, rat; details: conscious SHR, daily oral dosing 100 mg/kg for 3 days
# Method: Ten adult male spontaneously hypertensive rats were anesthetized with sodium pentobarbital and instrumented with a carotid arterial catheter. On the following day each rat was tethered in a plastic cage and arterial blood pressure and heart rate were monitored via the arterial catheter continuously for 72 hours. Each rat was dosed intragastrically with 100 mg/kg of the test compound each day for three days. A vehicle treated group (saline) of 10 rats was tested simultaneously. Differences in blood pressure between the treated and vehicle group were analyzed by the Kraskal-Wallis and Wilcoxon rank sum tests.
# [3] = test system: spontaneously hypertensive rats; experiment: Systemic hemodynamics in pentobarbital anesthetized spontaneously hypertensive rats; assay type: in vivo, rat
# Method: Five adult male spontaneously hypertensive rats were anesthetized with sodium pentobarbital and instrumented with a femoral artery catheter for measuring arterial pressure and heart rate. The jugular vein was catheterized for injections and a thermocouple was placed in the aortic arch via the carotid artery for cardiac output measurement by the thermodilution technique. The trachea was cannulated and the rats breathed 100% oxygen. Control readings were taken and the test compound was injected in doses ranging from 0.1 to 30 mg/kg iv. After the 30 mg/kg dose, propranolol was injected iv at a dose of 1 mg/kg. Changes in hemodynamic parameters from control readings were analyzed by the paired t-test.
# β-adrenergic receptor = biological target: T1, β-adrenergic receptor (Rattus norvegicus, UniProt P10608); experiment: Beta-adrenergic receptor binding ([3H]DHA displacement, rat cerebellum plasma membranes); details: rat cerebellum cortex membranes, 1 nM [3H]DHA; read-out: IC50, inhibition of β-adrenergic receptor binding of tritiated dihydroalprenolol
# T1 construct: Rat cerebellums were homogenized in 20 volumes of ice cold 50 mM Tris-HCl buffer; from tissue; host or cells: rat cerebellum (crude plasma membranes)
# T1 sequence (P10608 whole entry): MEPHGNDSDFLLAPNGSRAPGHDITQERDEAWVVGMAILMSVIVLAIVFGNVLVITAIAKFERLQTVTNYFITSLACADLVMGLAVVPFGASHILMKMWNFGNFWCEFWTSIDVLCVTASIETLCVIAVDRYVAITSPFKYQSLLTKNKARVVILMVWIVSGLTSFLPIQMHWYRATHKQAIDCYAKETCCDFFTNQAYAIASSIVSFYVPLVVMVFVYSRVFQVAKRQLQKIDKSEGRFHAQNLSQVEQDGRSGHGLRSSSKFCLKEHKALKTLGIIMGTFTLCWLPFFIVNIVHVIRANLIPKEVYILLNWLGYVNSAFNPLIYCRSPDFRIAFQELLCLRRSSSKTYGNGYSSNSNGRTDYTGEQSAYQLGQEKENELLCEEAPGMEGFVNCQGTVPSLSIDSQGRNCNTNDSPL
# Method: Tissue preparation: Rat cerebellum plasma membranes were prepared by the method of U'Prichard et al, (J. Biol. Chem., 253, No. 14, pp. 5090-5102, 1978). Rat cerebellums were homogenized in 20 volumes of ice cold 50 mM Tris-HCl buffer (pH 7.4) with a Tekmar homogenizer. Crude plasma membranes were obtained by centrifugation at 45,000× g for 15 min with an intermediate rehomogenization in fresh buffer. The final pellets were resuspended in ten volumes of 50 mM buffer with 0.25M sucrose.
# Binding Assay: Rat cerebellum plasma membrane preparations (10 mg wet weight per ml in a volume of one ml) were incubated with 1 nM [^3 H] DHA in buffer, 1 mM catechol and 0.01% ascorbic acid, either in the presence or absence of various amounts of test substance at room temperature for 20 minutes. Bound and free radioligand were separated by addition of 3.5 ml buffer (0° C.) followed by rapid filtration through Whatman GF/B glass fiber filter. The filter was then washed rapidly with three 3.5 ml buffer (3X). Specific binding was defined as the amount of the [^3 H]DHA bound in the absence of competing ligand minus the amount bound in the presence of 10 uM (±) propranolol (nonspecific binding). […] IC50 (inhibitory concentration -50%) values were calculated from the displacement data after logit-log transformation with least squares linear regression.
Compound,"ED25 ([1]; Rattus norvegicus, iv, cumulative doses 0.1-30 mg/kg, read-out: calculated intravenous dose reducing mean arterial pressure by 25%) [mg/kg]",elevation of heart rate [2] [beats/min],time pressure remained reduced [2] [h],lowering of mean arterial pressure ([2]; at 3-4 hours after dosing) [mmHg],"total peripheral resistance after compound ([3]; pentobarbital anesthetized SHR, iv 0.1 to 30 mg/kg, decreased from control 3 units) [units]","cardiac output after compound ([3]; pentobarbital anesthetized SHR, iv 0.1 to 30 mg/kg, increased from control 72 ml/min) [mL/min]",IC50 (β-adrenergic receptor) [µM],effect of propranolol on blood pressure and heart rate changes produced by the compound of the invention ([1]; propranolol 1 mg/kg iv),"effect of propranolol on hemodynamic effects (cardiac output, total peripheral resistance) of the compound of the invention ([3]; propranolol 1 mg/kg iv after the 30 mg/kg dose, anesthetized SHR)"
"CC(C)NCC(O)c1cccnc1 (stereo not drawn) [Example 1B, oxalate salt]",37,114,6 to 10,39,1.1,92,39,,
"CC(C)NCC(O)COc1cccc2ccccc12 (stereo not drawn) [Propranolol, propranolol, reference compound]",,,,,,,,attenuated the hypertension and tachycardia,reversed these hemodynamic effects
